# Results reported in patent publication US20090011447A1, “QUANTIFICATION OF VITELLOGENIN” (priority 2006, published 2009).
# Where “and” joins values, the source holds several entries; their conditions need not be identical. Identical values can stand only once.
# Tests used:
# Format in all cases: in vivo
# plasma Vtg [1] = assay: Vtg induction with β-estradiol in Rainbow trout, plasma signature peptide quantified by HPLC-QqToF-MS/MS; conditions: experimental (E) Rainbow trout, individual fish
# Experimental: (§1) Thirteen juvenile Rainbow trout and ten mature Atlantic salmon were kept in two 60 gallon tanks with running fresh and sea water, respectively. A 12 hour light-darkness cycle was maintained during the experiment. After one month of acclimatization, experimental fish were injected intraperitoneally four times, at one week intervals, with a dose of 10 mg of β-estradiol per kilogram of body weight using a 10 mg/mL solution in oil:acetone (9:1). Control fish were injected with the oil:acetone solution only.
# (§2) One week before the first injection and one week after the last injection, fish were anesthetized using tricaine methanesulfonate (TMS) and blood samples were collected from the caudal vein using heparinized syringes and transferred in 1 mL portions into plastic tubes kept in ice. Samples were centrifuged at 3000 rpm for 5 minutes at 0° C. Plasma was separated and kept frozen at −80° C. until further analysis.
# (§3) Five μL of plasma were mixed with 100 μL of denaturing buffer (8M urea, 4 mM dithiothreitol) and heated at 65° C. Then, 300 μL of a 50 mM solution of NH4HCO3 were added, followed by 95 μL of a 20 μg/mL trypsin solution. Digestion was carried out at 38° C. for 24 hours. Aliquots of 100 μL of the digested samples were mixed with 380 μL of solvent B (H2O: acetonitrile: acetic acid 70:30:0.1) and spiked with 20 μL of 5 μg/mL labeled standard solution. Finally, the samples were passed through 0.45 μm filters (Millipore Billerica Mass., USA, Cat. No. SJHV004NS) prior to injection into the HPLC.
# (§4) In the case of Rainbow trout and salmon, samples and standards were analyzed with a HPLC system (HP 1050 from Hewlett-Packard, Palo Alto Calif., USA) coupled on-line to a QqToF (QStar XL, Applied Biosystems, Foster City Calif., USA) tandem mass spectrometer equipped with an ESI ion source (TurbolonSpray). […]
# (§5) For quantification purposes, the extracted ion chromatograms of these diagnostic product ions were generated using a 2 Da mass range window around the selected product ions and manually integrated. […]
# Vtg = Vtg induction with β-estradiol in Atlantic cod, assessed by SDS-PAGE; conditions: experimental Atlantic cod serum, Coomassie blue stained gel, vs control fish
# Experimental: Twelve mature female Atlantic cod fish were kept in a 60 gallon tank with a running sea water supply and fed, ad libitum. A 12 hour light-darkness cycle was maintained during the experiment. After one month of acclimatization, experimental fish were injected intraperitoneally four times, at one week intervals, a dose of 10 mg of β-estradiol per kilogram of fish body weight using a 10 mg/ml solution in oil:acetone (9:1). Control fish were injected only with the oil:acetone solution. One week after the last injection, fish were anesthetized using tricaine methanesulfonate (TMS) and bled. Blood samples were collected from the caudal vein using heparinized syringes and transferred in 1 mL portions into plastic tubes kept in ice. Twenty microliters of a 4 TIU aprotinin solution were added to each sample, homogenized and centrifuged at 3000 rpm for 5 minutes at 0° C. Plasma was separated and kept frozen at -80° C. until further analysis. Separation of Vtg by SDS-PAGE and subsequent “in-gel” digestion was performed following the procedure described in detail by […] et al. with minor modifications^65. Five microliters of thawed plasma from both experimental and control fish were mixed and loaded onto a 6% acrylamide gel and run for one hour at 180 V. The gel was stained using the colloidal Coomassie blue protocol. […]
# plasma Vtg [2] = assay: Vtg induction with β-estradiol in Atlantic salmon, plasma signature peptide quantified by HPLC-QqToF-MS/MS; conditions: experimental (E) Atlantic salmon, individual fish
# Experimental: as §1, §2, §3, §4, §5
# [3] = converted from SP assuming 1:1 molar ratio
# [4] = one week after last of four weekly i.p. injections of 10 mg/kg, 10 mg/kg
smiles,measurement,setting,value
C[C@]12CC[C@@H]3c4ccc(O)cc4CC[C@H]3[C@@H]1CC[C@@H]2O [β-estradiol],"Vtg Conc, After β-estradiol",plasma Vtg [1],0.351 µM and 0.487 µM and 0.343 µM and 0.278 µM and 0.375 µM and 0.471 µM and 0.120 µM and 0.225 µM and 0.113 µM and 0.344 µM and 0.460 µM
same,"Vtg Conc, After β-estradiol",plasma Vtg [1]; [3],6.389 µg/mL and 8.867 µg/mL and 6.239 µg/mL and 5.059 µg/mL and 6.830 µg/mL and 8.562 µg/mL and 2.182 µg/mL and 4.091 µg/mL and 2.057 µg/mL and 6.264 µg/mL and 8.370 µg/mL
same,"SP Conc, After β-estradiol",plasma Vtg [1]; [4],0.576 µg/mL and 0.799 µg/mL and 0.562 µg/mL and 0.456 µg/mL and 0.615 µg/mL and 0.771 µg/mL and 0.197 µg/mL and 0.368 µg/mL and 0.185 µg/mL and 0.564 µg/mL and 0.754 µg/mL
same,Vtg induction (SDS-PAGE band),Vtg,strong induced band
same,"Vtg Conc, After β-estradiol",plasma Vtg [2],0.383 µM and 0.591 µM and 0.268 µM and 0.399 µM and 0.330 µM
same,"Vtg Conc, After β-estradiol",plasma Vtg [2]; [3],6.967 µg/mL and 10.758 µg/mL and 4.876 µg/mL and 7.254 µg/mL and 5.997 µg/mL
same,"SP Conc, After β-estradiol",plasma Vtg [2]; [4],0.628 µg/mL and 0.969 µg/mL and 0.439 µg/mL and 0.653 µg/mL and 0.540 µg/mL
